Experimental data from article PMC10160475, “Biological evaluation and in silico studies of novel compounds as potent TAAR1 agonists that could be used in schizophrenia treatment” (Frontiers in Pharmacology, 2023).

What was measured:
[1] = Liver microsomal stability, human
Procedure: (§1) Compounds were incubated with samples of liver microsomes from mice, rats, and humans and NADPH for 5, 10, 20, 30, or 60 min at 37°C. A cold acetonitrile solution containing tolbutamide was used to terminate the reaction. Testosterone and dextromethorphan were used as positive controls. LC-MS/MS was employed to determine the retention of compounds. The retention time, chromatogram acquisition, and chromatogram integration of compounds and positive control substances were analyzed using Analyst (AB Sciex, Framingham, MA, United States).

[2] = biological target: T1, human dopamine D2L receptors (Homo sapiens, UniProt P14416); test: cAMP assay, inhibition at human dopamine D2L receptors; assay type: cell-based
T1 construct: expressed in transfected cells; host or cells: Flp-In-CHO cells
T1 sequence (P14416 whole entry): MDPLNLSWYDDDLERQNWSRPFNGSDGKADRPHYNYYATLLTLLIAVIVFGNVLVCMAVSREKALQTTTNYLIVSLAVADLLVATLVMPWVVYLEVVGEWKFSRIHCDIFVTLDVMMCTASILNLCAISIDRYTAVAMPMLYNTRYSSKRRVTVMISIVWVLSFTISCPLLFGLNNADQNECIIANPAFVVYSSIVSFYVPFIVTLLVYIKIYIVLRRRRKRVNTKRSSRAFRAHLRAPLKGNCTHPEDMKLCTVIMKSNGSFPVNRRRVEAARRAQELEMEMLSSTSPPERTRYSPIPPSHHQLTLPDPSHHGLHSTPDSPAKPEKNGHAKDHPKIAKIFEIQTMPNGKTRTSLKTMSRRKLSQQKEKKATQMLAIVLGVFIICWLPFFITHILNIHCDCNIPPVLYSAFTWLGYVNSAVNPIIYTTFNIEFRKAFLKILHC
Procedure: (§2) With regard to D2L and D2S, recombinant Flp-In™-CHO cells expressing human dopamine D2L receptors or D2S receptors were cultured with Ham’s F-12K (Kaighn’s) medium supplemented with 10% FBS, penicillin (100 U/ml), streptomycin (100 μg/ml), and hygromycin B (600 μg/ml) at 37°C in an atmosphere of 5% CO2. The methods of cell inoculation and compound treatment were the same as those for TAAR1, and haloperidol was used as the MAX control. Percentage inhibition was calculated using the following equation: Inhibition %=mean RLUtest sample−mean RLUvehicle control/mean RLUMAX control−mean RLUvehicle control×100%.

D2S receptors = biological target: T2, D2S receptors (Homo sapiens, UniProt P14416); test: cAMP assay, inhibition at human dopamine D2S receptors; assay type: cell-based
T2 construct: expressed in transfected cells; host or cells: Flp-In-CHO cells
T2 sequence (P14416 1-414 isoform P14416-2): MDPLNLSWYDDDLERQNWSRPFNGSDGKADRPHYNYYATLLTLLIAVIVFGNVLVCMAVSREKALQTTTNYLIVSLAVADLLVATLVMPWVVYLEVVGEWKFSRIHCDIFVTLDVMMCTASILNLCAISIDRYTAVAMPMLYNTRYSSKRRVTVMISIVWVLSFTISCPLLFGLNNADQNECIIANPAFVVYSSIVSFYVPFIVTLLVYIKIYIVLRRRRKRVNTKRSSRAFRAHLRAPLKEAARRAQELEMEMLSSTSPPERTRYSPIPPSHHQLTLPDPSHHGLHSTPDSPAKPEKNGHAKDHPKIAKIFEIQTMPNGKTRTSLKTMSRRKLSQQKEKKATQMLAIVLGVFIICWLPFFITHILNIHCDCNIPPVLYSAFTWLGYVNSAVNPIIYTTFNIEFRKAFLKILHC
Procedure: as §2

[3] = Liver microsomal stability, mouse
Procedure: as §1

human 5-HT2A = biological target: T3, human 5-HT2A (Homo sapiens, UniProt P28223); test: Calcium (FLIPR) assay, antagonist activity at human 5-HT2A; assay type: cell-based
T3 construct: expressed in transfected cells; host or cells: Flp-In-CHO cell line
T3 sequence (P28223 whole entry): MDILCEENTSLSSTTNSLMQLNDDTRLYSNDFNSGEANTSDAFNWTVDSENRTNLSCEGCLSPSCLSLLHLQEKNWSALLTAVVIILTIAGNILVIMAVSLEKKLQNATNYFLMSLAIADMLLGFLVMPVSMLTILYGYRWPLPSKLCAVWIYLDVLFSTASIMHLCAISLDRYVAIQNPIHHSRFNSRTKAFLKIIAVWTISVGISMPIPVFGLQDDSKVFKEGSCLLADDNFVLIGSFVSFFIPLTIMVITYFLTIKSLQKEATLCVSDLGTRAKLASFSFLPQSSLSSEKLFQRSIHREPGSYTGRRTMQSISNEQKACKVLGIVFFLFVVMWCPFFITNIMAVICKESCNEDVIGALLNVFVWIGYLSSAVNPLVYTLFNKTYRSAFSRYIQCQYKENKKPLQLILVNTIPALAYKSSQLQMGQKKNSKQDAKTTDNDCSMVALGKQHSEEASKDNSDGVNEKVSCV
Procedure: With regard to 5-HT2A, the agonistic or inhibitory activity of 5-HT2A of compounds was determined using the Flp-In™-CHO cell line expressing human 5-HT2A. Cells were cultured with Ham’s F-12K (Kaighn’s) medium supplemented with 10% FBS, penicillin (100 U/ml), streptomycin (100 μg/ml), and hygromycin B (600 μg/ml) at 37°C in an atmosphere of 95% air and 5% CO2. Cells were stimulated with different concentrations of compounds for 2 h at 37°C after seeding in 384-well microplates. For the determination of agonistic activity, serotonin was used as the MAX control. In the determination of inhibitory activity, ketanserin was used as the MAX control.

hERG = biological target: T4, hERG (Homo sapiens, UniProt Q12809); test: hERG assay (electrophysiological recording, CHO cells stably expressing hERG); assay type: cell-based; conditions: up to a maximum concentration of 30 μM
T4 construct: expressed in transfected cells; host or cells: CHO cells stably expressing hERG
T4 sequence (Q12809 whole entry): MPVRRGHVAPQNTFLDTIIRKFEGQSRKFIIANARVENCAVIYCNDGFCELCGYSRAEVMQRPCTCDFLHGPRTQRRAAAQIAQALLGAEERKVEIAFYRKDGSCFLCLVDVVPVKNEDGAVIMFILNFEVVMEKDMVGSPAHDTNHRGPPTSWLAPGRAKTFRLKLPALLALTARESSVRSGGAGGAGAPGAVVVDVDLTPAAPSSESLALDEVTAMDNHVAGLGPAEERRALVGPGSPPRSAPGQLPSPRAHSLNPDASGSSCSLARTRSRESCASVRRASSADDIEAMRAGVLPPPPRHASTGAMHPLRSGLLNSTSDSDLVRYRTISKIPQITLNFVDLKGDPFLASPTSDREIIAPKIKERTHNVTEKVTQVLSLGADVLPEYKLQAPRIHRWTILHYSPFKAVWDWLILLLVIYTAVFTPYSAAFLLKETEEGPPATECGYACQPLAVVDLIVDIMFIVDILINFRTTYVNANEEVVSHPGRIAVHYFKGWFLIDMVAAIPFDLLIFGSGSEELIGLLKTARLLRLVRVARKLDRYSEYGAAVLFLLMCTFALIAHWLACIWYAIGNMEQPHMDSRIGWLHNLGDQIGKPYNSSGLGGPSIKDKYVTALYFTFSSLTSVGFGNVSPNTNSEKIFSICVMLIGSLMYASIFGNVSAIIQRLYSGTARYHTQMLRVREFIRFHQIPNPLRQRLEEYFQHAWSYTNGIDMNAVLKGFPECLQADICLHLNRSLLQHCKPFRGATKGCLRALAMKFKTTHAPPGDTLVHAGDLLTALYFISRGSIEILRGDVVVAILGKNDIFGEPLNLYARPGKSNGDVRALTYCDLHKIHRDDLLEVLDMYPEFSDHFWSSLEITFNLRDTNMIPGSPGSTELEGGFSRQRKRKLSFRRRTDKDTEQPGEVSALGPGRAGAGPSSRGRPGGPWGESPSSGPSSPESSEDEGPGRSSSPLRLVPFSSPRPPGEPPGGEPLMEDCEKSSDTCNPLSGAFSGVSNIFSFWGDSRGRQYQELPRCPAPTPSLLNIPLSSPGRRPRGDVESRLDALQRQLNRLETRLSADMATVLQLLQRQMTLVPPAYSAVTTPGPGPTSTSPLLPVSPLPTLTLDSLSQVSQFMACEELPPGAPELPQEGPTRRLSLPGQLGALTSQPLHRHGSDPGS
Procedure: CHO cells stably expressing hERG cultured with DMEM/F12 supplemented with 10% FBS, penicillin (100 U/ml), and streptomycin (100 μg/ml) were cultured in cell culture dishes (diameter = 35 mm) in an incubator at 37°C in an atmosphere of 5% CO2. They were passaged at a ratio of 1:5 every 48 h. The medium comprised 90% F12, 10% FBS, G418 (100 μg/ml), and hygromycin B (100 μg/ml). On the day of the assay, the cell culture medium was aspirated and washed with an extracellular solution. Then, 0.25% Trypsin–EDTA solution was added, and digestion was allowed for 3–5 min at room temperature. Digestive juice was aspirated, and cells were transferred to the experimental dish for electrophysiological recording after resuspension with the extracellular solution for future use.

catalepsy = test: Catalepsy assay (bar test); assay type: in vivo, C57BI/6J mice; conditions: 100 mg/kg p.o., 30 and 90 min after administration
Procedure: Twenty-four male C57BI/6J mice were divided randomly into four groups. Mice were placed in a room 1 h before testing. […] The front paws of mice were placed on a horizontal metal bar raised 2 inches above a Plexiglas™ platform 30 min and 90 min after administration. The time the front paws of mice were placed on the platform was recorded at ≤30 s per trial. Each test was repeated three times.

human TAAR1 = biological target: T5, human TAAR1 (Homo sapiens, UniProt Q96RJ0); test: cAMP assay, functional agonist activity at human TAAR1; assay type: cell-based
T5 construct: expressed in transfected cells; host or cells: cAMP Hunter CHO-K1 AGTRL1 Gi cells
T5 sequence (Q96RJ0 1-339): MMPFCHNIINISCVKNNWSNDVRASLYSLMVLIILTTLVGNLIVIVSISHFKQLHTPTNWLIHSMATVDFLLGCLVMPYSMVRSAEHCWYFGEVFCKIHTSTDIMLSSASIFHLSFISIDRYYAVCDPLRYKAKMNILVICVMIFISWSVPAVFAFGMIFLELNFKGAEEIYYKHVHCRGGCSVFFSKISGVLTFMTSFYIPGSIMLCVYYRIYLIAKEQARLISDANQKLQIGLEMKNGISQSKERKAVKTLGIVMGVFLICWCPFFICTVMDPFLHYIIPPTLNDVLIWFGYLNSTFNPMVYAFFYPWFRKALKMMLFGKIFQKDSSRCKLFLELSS
Procedure: Cells were seeded in a total volume of 20 µL into white-walled, 384-well microplates, followed by incubation at 37°C for the appropriate time before testing. Different concentrations of compounds were added to cells, and incubation was undertaken at 37°C for 10 min, with p-tyramine used as the MAX control. cAMP modulation was determined using the DiscoverX HitHunter cAMP XS + assay. Percentage activity was calculated using the following equation: Activity %=mean RLUtest sample – mean RLUvehicle control/mean RLUMAX control – mean RLUvehicle control×100%.

[4] = system: MK801-induced schizophrenia-like behavior; test: MK801-induced schizophrenia-like behavior (open field, distance traveled); assay type: in vivo, C57BI/6J mice
Procedure: Ninety-nine male C57BI/6J mice were divided randomly into 11 groups. Mice were placed in a room 1 h before testing. They were administered (p.o.) vehicle (0.1 ml/10 g), 50A (0.3, 1, 3, and 10 mg/kg; 0.1 ml/10 g), or 50B (0.3, 1, 3, and 10 mg/kg; 0.1 ml/10 g). […] Then, mice were administered (i.p.) MK801 (0.8 mg/kg dissolved in physiologic saline; 0.1 ml/10 g). After 30 min, the distance that mice traveled was measured.
Forty-six male C57BI/6J mice were divided randomly into four groups. The CN group contained four mice. […] The administration method described previously was employed.

**Q.** For c1csc([C@@H]2CNCCO2)c1 [Compound 50B], which “Remaining (T = 60 min)” value ([1]; Human liver microsomes, 60 min) is on record?
**A.** 77.2%

**Q.** What about the CLint scaled ([1]; human, liver microsomes) of the same molecule?
**A.** 7.74 mL/min/kg

**Q.** What about the half-life ([1]; human, liver microsomes) of the same molecule?
**A.** 2.68 h

**Q.** And the IC50 [2]?
**A.** > 100 µM

**Q.** What about the Emax ([2]; haloperidol as MAX control, up to 100 μM, read-out: dopamine D2L antagonist Emax) of the same molecule?
**A.** 5.49%

**Q.** And the IC50 (D2S receptors)?
**A.** > 100 µM

**Q.** What about the Emax (D2S receptors; haloperidol as MAX control, up to 100 μM, read-out: dopamine D2S antagonist Emax) of the same molecule?
**A.** 24.9%

**Q.** And the “Remaining (T = 60 min)” value ([3]; Mouse liver microsomes, 60 min)?
**A.** 53.5%

**Q.** What about the CLint scaled ([3]; mouse, liver microsomes) of the same molecule?
**A.** 80.8 mL/min/kg

**Q.** And the half-life ([3]; mouse, liver microsomes)?
**A.** 1.13 h

**Q.** And the IC50 (human 5-HT2A)?
**A.** > 100 µM

**Q.** What about the Emax (human 5-HT2A; ketanserin as MAX control, up to 100 μM) of the same molecule?
**A.** 31.5%

**Q.** And the hERG cardiotoxicity (hERG)?
**A.** not cardiotoxic

**Q.** What about the “Time mice spent holding bars (catalepsy)” value (catalepsy) of the same molecule?
**A.** did not increase this time

**Q.** What about the EC50 (human TAAR1) of the same molecule?
**A.** 0.405 µM

**Q.** And the Emax (human TAAR1; read-out: TAAR1 Agonist % Emax)?
**A.** 80.1%

**Q.** And the “MK801-induced increase in distance traveled” value ([4]; mice, 10 mg/kg p.o., MK801 0.8 mg/kg i.p.)?
**A.** significantly reduced

**Q.** What about the “Inhibition of MK801-induced schizophrenia-like behavior (effective doses)” value ([4]; mice, single oral dose 0.3, 1, 3 and 10 mg/kg, MK801 0.8 mg/kg i.p.) of the same molecule?
**A.** markedly at 1, 3, and 10 mg/kg

**Q.** And the “Distance moved by mice in the presence or absence of MK801” value ([4]; single oral dose 0.3, 1, 3 and 10 mg/kg)?
**A.** significantly reduced the distance moved by mice
